Tests used:
[1] = test system: osteoprogenitor cell MC3T3-E1; assay: Alkaline phosphatase (osteoblast differentiation marker) activity after ornithine addition, MC3T3-E1; format: cell-based; conditions: 7 days culture, vs no addition of ornithine
Description: The cells were placed in a T-75 flask using a medium and cultured in a CO2 incubator (5% CO2, 37° C.). The medium was changed every other day, and the cells were collected when they reached 80% confluence and used for the test.
(§1) The cells were adjusted with medium to 1.2x10^5 cells/0.2 mL/well and seeded in a 48-well plate. […] After culturing for 7 days, the cells were washed once with PBS for ALP activity measurement and then cryopreserved together with the plate. In addition, after culturing for 14 days, the culture supernatant was sampled for measurement of the amount of osteocalcin used in the below-mentioned Experimental Example 2, and cryopreserved. The test was performed with n=5 and the medium was changed every 3-4 days.
The cells were washed with PBS and lysed with 60 µL/well of cell lysing agent (Cell-LyEX1 containing 2 mM PMSF). After stirring the plate at room temperature for 30 min, the supernatant was diluted 5-fold and the obtained solution was used as a sample for measurement. ALP activity in the cells was measured by LabAssay ALP. With this kit, ALP activity was measured from the amount of p-nitrophenol per unit amount of protein produced within a given period of time. The amount of protein in the solution was measured using Micro BCA Protein Assay Reagent Kit.
(§2) The test was a two-sided test with Student’s t-test, and P<0.05 (less than 5% of null hypothesis) or more was judged as significant difference. The data in the graph is shown in mean±standard error.

[2] = test system: osteoprogenitor cell MC3T3-E1; assay: Osteocalcin (osteoblast differentiation marker) production amount after ornithine addition, MC3T3-E1; format: cell-based; conditions: ornithine 5.0 mg/mL, 14 days culture, culture supernatant, vs no addition of ornithine
Description: as §1
For the measurement of the amount of osteocalcin in the culture supernatant, the supernatant was diluted 10-fold and the measurement was performed using Mouse Osteocalcin EIA kit.
as §2

[3] = test system: osteoprogenitor cell MC3T3-E1; assay: Alkaline phosphatase activity after ornithine addition, MC3T3-E1, influence of BMP-2 concentration; format: cell-based; conditions: ornithine 5 mg/mL, 7 days, vs ornithine no addition
Description: The cells were placed in a 10 cm petri dish using a medium and cultured in a CO2 incubator (5% CO2, 37° C.). The medium was changed every other day, and the cells were collected when they reached 80% confluence and used for the test.
The cells were adjusted with medium to 1.2x10^5 cells/0.2 mL/well and seeded in a 48-well plate. […] After 7 days, the cells were washed once with PBS, 50 µL of 0.1% Triton-X was added, and the mixture was further sonicated for 1 min to prepare a cell lysate. The test was performed with n=4 and the medium was changed every 3-4 days.
ALP activity of the above-mentioned cell lysate was measured by LabAssay ALP. With this kit, ALP activity was measured from the amount of p-nitrophenol per unit amount of protein produced within a given period of time. The amount of protein in the solution was measured using Micro BCA Protein Assay Reagent Kit.
as §2

[4] = test system: osteoclast progenitor cell RAW264; assay: Osteoclast number measurement (TRAP staining) after ornithine addition, RAW264; format: cell-based; conditions: 50 ng/mL RANKL, 7 days, vs ornithine non-addition
Description: The cells were placed in a T-75 flask using a medium and cultured in a CO2 incubator (5% CO2, 37° C.). The medium was changed every other day, and the cells were collected when they reached 80% confluence and used for the test. Cells were prepared in a test medium at 3x10^3 cells/0.1 mL/well and seeded in a 96 well plate. […] After culturing for 7 days, TRAP staining was performed, and TRAP staining-positive and multinucleated cells were counted, based on which the ability to suppress differentiation into osteoclasts was examined by comparison. The medium was changed every 3-4 days. The test was performed with n=5. The test was a two-sided test with Student’s t-test, and P<0.05 (less than 5% of null hypothesis) or more was judged as significant difference. The data in the graph is shown in mean±standard error.

[5] = test system: osteoporosis-disuse muscle atrophy simultaneous onset mouse model; assay: Gastrocnemius muscle weight, osteoporosis-disuse muscle atrophy simultaneous onset mouse model; format: in vivo; conditions: OVX mice with cast fixation, ornithine 1% blended feed, vs OVX (ornithine non-administration with cast fixation) group

`Cl.NCCC[C@H](N)C(=O)O` [ornithine, L-Ornithine Monohydrochloride] was tested, and the alkaline phosphatase activity ([1]; ornithine 0.2 mg/mL) was “significantly increased”, the alkaline phosphatase activity ([1]; ornithine 1.0 mg/mL) was “significantly increased” and the alkaline phosphatase activity ([1]; ornithine 5.0 mg/mL) was “significantly increased”. For the same molecule, the osteocalcin production amount [2] was “significantly increased”, the alkaline phosphatase activity ([3]; BMP-2 50 ng/mL) was “significantly increased” and the alkaline phosphatase activity ([3]; BMP-2 100 ng/mL) was “significantly increased”. For the same molecule, the alkaline phosphatase activity ([3]; BMP-2 200 ng/mL) was “significantly increased”, the number of osteoclasts ([4]; ornithine 0.02 mg/mL) was “decreased” and the number of osteoclasts ([4]; ornithine 0.1 mg/mL) was “significantly decreased”. The number of osteoclasts ([4]; ornithine 0.5 mg/mL) was “significantly decreased” and the “gastrocnemius muscle weight (per body weight)” value [5] was “increased”.
